Laboratory results from patent US20120101083A1, “S1P1 AGONISTS COMPRISING A BICYCLIC N-CONTAINING RING” (GLAXO GROUP LIMITED, priority 2009, published 2012).
Counter-ions that a name gives are not always drawn.

Legend:
[1] = biological target: T1, S1P1 receptor (S1P1 expressing RH7777 membranes) (Homo sapiens, UniProt P21453); test: S1P1 GTPγS assay; format: biochemical; conditions: tested in one of the above S1P1 assays (two GTPγS formats)
T1 construct: expressed in transfected cells; host or cells: RH7777 cells (membranes)
Summary of the method: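 Membranes from RH7777 cells expressing human S1P1 (1.5 μg/well) precoupled 30 min on ice to WGA SPA beads in 20 mM HEPES pH 7.4, 10 mM MgCl2, 100 mM NaCl, with 10 μM GDP and 90 μg/ml saponin. [35S]-GTPγS 0.5 nM final added with compound; SPA signal read immediately.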

[2] = biological target: T2, S1P1 (PathHunter CHO-K1 EDG1 β-Arrestin cell line) (Homo sapiens, UniProt P21453); test: S1P-1 β-Arrestin recruitment assay; format: cell-based; conditions: CHO-K1 EDG1 β-Arrestin cells, chemi-luminescence
T2 construct: host or cells: PathHunter CHO-K1 EDG1 β-Arrestin cell line
Summary of the method: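 CHO-K1 cells expressing S1P1 and β-arrestin 2 fused to complementing β-galactosidase fragments, at 1×10^4 cells/well in pH 7.4 buffer with 0.1% BSA. Compound exposure 90 min at 37 °C then 15 min room temperature; chemiluminescent substrate added for 60 min before luminescence read.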

T1 sequence (P21453 whole entry): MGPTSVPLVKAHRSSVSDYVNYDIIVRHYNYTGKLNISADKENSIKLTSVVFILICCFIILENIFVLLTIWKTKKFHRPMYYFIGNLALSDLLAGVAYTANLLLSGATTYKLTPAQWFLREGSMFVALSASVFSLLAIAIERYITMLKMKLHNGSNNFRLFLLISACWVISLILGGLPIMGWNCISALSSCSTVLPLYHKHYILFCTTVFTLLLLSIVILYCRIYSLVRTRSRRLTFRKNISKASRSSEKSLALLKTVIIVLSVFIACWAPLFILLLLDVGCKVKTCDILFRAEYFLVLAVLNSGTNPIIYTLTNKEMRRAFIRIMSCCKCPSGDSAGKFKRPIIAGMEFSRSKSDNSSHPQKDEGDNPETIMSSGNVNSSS
T2 sequence (P21453 whole entry): as above
T2 sequence (P32121 whole entry partner): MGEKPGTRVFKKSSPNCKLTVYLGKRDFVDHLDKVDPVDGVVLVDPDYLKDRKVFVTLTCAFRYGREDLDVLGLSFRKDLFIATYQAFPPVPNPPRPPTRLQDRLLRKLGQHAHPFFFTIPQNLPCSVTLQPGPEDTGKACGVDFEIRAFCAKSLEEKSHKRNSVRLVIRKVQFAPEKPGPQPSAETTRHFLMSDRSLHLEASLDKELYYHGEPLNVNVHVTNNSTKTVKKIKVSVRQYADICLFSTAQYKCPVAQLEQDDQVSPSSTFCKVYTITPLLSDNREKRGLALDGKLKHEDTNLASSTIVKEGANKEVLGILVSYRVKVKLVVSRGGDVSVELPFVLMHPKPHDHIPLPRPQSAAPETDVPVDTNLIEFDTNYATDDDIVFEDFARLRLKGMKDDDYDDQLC

Row | SMILES | EC50 [1] | EC50 [2]
1 | CCOc1ncc(-c2nc(-c3ccc4c(c3)CCN(C[C@H](O)CO)CC4)no2)cc1C#N [Example 116, 5-(3-{34[(2S)-2,3-dihydroxypropyl]-2,3,4,5-tetrahydro-1H-3-benzazepin-7-yl}-1,2,4-oxadiazol-5-yl)-2-(ethyloxy)-3-pyridinecarbonitrile] | ≤ 1000 nM | ≤ 100 nM
2 | Cc1c(-c2noc(-c3ccc(OC(C)C)c(C#N)c3)n2)ccc2c1CCN(CC(=O)N[C@H](C)CO)C2 [Example 118, 2-[6-(5-{3-cyano-4-[(1-methylethyl)oxy]phenyl}-1,2,4-oxadiazol-3-yl)-5-methyl-3,4-dihydro-2(1H)-isoquinolinyl]-N-(1R)-2-hydroxy-1-methylethyl]acetamide hydrochloride] | ≤ 100 nM | ≤ 10 nM
3 | Cc1c(-c2noc(-c3ccc(OC(C)C)c(C#N)c3)n2)ccc2c1CCN(CC(=O)N[C@@H](C)CO)C2 [Example 119, 2-[6-(5-{3-cyano-4-[(1-methylethyl)oxy]phenyl}-1,2,4-oxadiazol-3-yl)-5-methyl-3,4-dihydro-2(1H)-isoquinolinyl]-N-[(1S)-2-hydroxy-1-methylethyl]acetamide hydrochloride] | ≤ 10 nM | ≤ 10 nM
4 | Cc1c(-c2noc(-c3ccc(OC(C)C)c(C#N)c3)n2)ccc2c1CCN(CC(=O)NCCO)C2 [Example 122, 2-[6-(5-{3-cyano-4-[(1-methylethyl)oxy]phenyl}-1,2,4-oxadiazol-3-yl)-5-methyl-3,4-dihydro-2(1H)-isoquinolinyl]-N-(2-hydroxyethyl)acetamide hydrochloride] | ≤ 10 nM | ≤ 10 nM
5 | Cc1c(-c2noc(-c3ccc(OC(C)C)c(C#N)c3)n2)ccc2c1CCN(CC(=O)N1CC(O)C1)C2 [Example 123, 5-(3-{2-[2-(3-hydroxy-1-azetidinyl)-2-oxoethyl]-5-methyl-1,2,3,4-tetrahydro-6-isoquinolinyl}-1,2,4-oxadiazol-5-yl)-2-[(1-methylethyl)oxy]benzonitrile hydrochloride] | ≤ 100 nM | ≤ 10 nM
6 | Cc1c(-c2noc(-c3ccc(OC(C)C)c(C#N)c3)n2)ccc2c1CCN(CC(=O)NC[C@H](O)CO)C2 [Example 124, 2-[6-(5-{3-cyano-4-[(1-methylethyl)oxy]phenyl}-1,2,4-oxadiazol-3-yl)-5-methyl-3,4-dihydro-2(1H)-isoquinolinyl]-N-[(2S)-2,3-dihydroxypropyl]acetamide hydrochloride] | ≤ 100 nM | ≤ 10 nM
7 | Cc1c(-c2noc(-c3ccc(OC(C)C)c(C#N)c3)n2)ccc2c1CCN(CC(=O)NC(CO)CO)C2 [Example 125, 2-[6-(5-{3-cyano-4-[(1-methylethyl)oxy]phenyl}-1,2,4-oxadiazol-3-yl)-5-methyl-3,4-dihydro-2(1H)-isoquinolinyl]-N-[2-hydroxy-1-(hydroxymethyl)ethyl]acetamide hydrochloride] | ≤ 100 nM | ≤ 10 nM
8 | Cc1c(-c2noc(-c3ccc(OC(C)C)c(C#N)c3)n2)ccc2c1CCN(C(=O)CNC[C@@H](C)O)C2 [Example 129, 5-[3-(2-{N-[(2R)-2-hydroxypropyl]glycyl}-5-methyl-1,2,3,4-tetrahydro-6-isoquinolinyl)-1,2,4-oxadiazol-5-yl]-2-[(1-methylethyl)oxy]benzonitrile hydrochloride] | > 10000 nM | ≤ 10 nM
9 | Cc1c(-c2noc(-c3cnc(OC(C)C)c(C#N)c3)n2)ccc2c1CCN(C[C@H](O)CO)C2 [Example 132, 5-(3-{2-[(2S)-2,3-dihydroxypropyl]-5-methyl-1,2,3,4-tetrahydro-6-isoquinolinyl}-1,2,4-oxadiazol-5-yl)-2-[(1-methylethyl)oxy]-3-pyridinecarbonitrile] | ≤ 1000 nM | ≤ 100 nM
10 | Cc1c(-c2noc(-c3cnc(OC(C)C)c(C#N)c3)n2)ccc2c1CCN(C[C@@H](O)CO)C2 [Example 133] | ≤ 100 nM | ≤ 100 nM
11 | Cc1c(-c2noc(-c3cnc(OC(C)C)c(C#N)c3)n2)ccc2c1CCN(C(CO)CO)C2 [Example 134, 5-(3-{2-[2-hydroxy-1-(hydroxymethyl)ethyl]-5-methyl-1,2,3,4-tetrahydro-6-isoquinolinyl}-1,2,4-oxadiazol-5-yl)-2-[(1-methylethyl)oxy]-3-pyridinecarbonitrile hydrochloride] | ≤ 100 nM | ≤ 10 nM

Next, values leading:

Row | EC50 [1] | EC50 [2] | SMILES
12 | ≤ 100 nM | ≤ 100 nM | N#Cc1cc(-c2nc(-c3ccc4c(c3)CCN(C[C@H](O)CO)CC4)no2)ccc1OCC(F)(F)F [Example 135, 5-(3-{3-[(2S)-2,3-dihydroxypropyl]-2,3,4,5-tetrahydro-1H-3-benzazepin-7-yl}-1,2,4-oxadiazol-5-yl)-2-[(2,2,2-trifluoroethyl)oxy]benzonitrile]
13 | ≤ 100 nM | ≤ 10 nM | Cc1c(-c2noc(-c3ccc(OC(C)C)c(C#N)c3)n2)ccc2c1CCN(CC(=O)NCCO)CC2 [Example 146, 2-[7-(5-{3-cyano-4-[(1-methylethyl)oxy]phenyl}-1,2,4-oxadiazol-3-yl)-6-methyl-1,2,4,5-tetrahydro-3H-3-benzazepin-3-yl]-N-(2-hydroxyethyl)acetamide]
14 | ≤ 100 nM | ≤ 10 nM | Cc1c(-c2noc(-c3ccc(OC(C)C)c(C#N)c3)n2)ccc2c1CCN(CC(=O)NC[C@@H](C)O)CC2 [Example 147, 2-[7-(5-{3-cyano-4-[(1-methylethyl)oxy]phenyl}-1,2,4-oxadiazol-3-yl)-6-methyl-1,2,4,5-tetrahydro-3H-3-benzazepin-3-yl]-N-[(2R)-2-hydroxypropyl]acetamide]
15 | ≤ 100 nM | ≤ 10 nM | Cc1c(-c2noc(-c3ccc(OC(C)C)c(C#N)c3)n2)ccc2c1CCN(CC(=O)NC[C@H](C)O)CC2 [Example 148, 2-[7-(5-{3-cyano-4-[(1-methylethyl)oxy]phenyl}-1,2,4-oxadiazol-3-yl)-6-methyl-1,2,4,5-tetrahydro-3H-3-benzazepin-3-yl]-N-[(2S)-2-hydroxypropyl]acetamide]
16 | ≤ 100 nM | ≤ 100 nM | Cc1c(-c2noc(-c3ccc(OC(C)C)c(C#N)c3)n2)ccc2c1CCN(C[C@H](O)CO)CC2 [Example 153, 5-(3-{3-[(2S)-2,3-dihydroxypropyl]-6-methyl-2,3,4,5-tetrahydro-1H-3-benzazepin-7-yl}-1,2,4-oxadiazol-5-yl)-2-[(1-methylethyl)oxy]benzonitrile hydrochloride]
17 | ≤ 100 nM | ≤ 100 nM | Cc1c(-c2noc(-c3ccc(OC(C)C)c(C#N)c3)n2)ccc2c1CCN(C[C@@H](O)CO)CC2 [Example 154, 5-(3-{3-[(2R)-2,3-dihydroxypropyl]-6-methyl-2,3,4,5-tetrahydro-1H-3-benzazepin-7-yl}-1,2,4-oxadiazol-5-yl)-2-[(1-methylethyl)oxy]benzonitrile hydrochloride]
18 | 1 nM | ≤ 10 nM | Cc1c(-c2noc(-c3ccc(OC(C)C)c(C#N)c3)n2)ccc2c1CCN(C(=O)CNCCO)CC2 [Example 155, 5-(3-{3-[N-(2-hydroxyethyl)glycyl]-6-methyl-2,3,4,5-tetrahydro-1H-3-benzazepin-7-yl}-1,2,4-oxadiazol-5-yl)-2-[(1-methylethyl)oxy]benzonitrile]
19 | ≤ 100 nM | ≤ 10 nM | Cc1c(-c2noc(-c3ccc(OC(C)C)c(C#N)c3)n2)ccc2c1CCN(C(CO)CO)CC2 [Example 156, 5-(3-{3-[2-hydroxy-1-(hydroxymethyl)ethyl]-6-methyl-2,3,4,5-tetrahydro-1H-3-benzazepin-7-yl}-1,2,4-oxadiazol-5-yl)-2-[(1-methylethyl)oxy]benzonitrile hydrochloride]
